US8399459B2, “1,4 oxazines as BACE1 and/or BACE2 inhibitors” (Hoffmann-La Roche Inc., priority 2011, dated 2013)
Structures can show the parent of a compound that is named as a salt.

Target: T1, BACE1 (Homo sapiens, UniProt P56817)
T1 construct: Human HEK293 cells which are stably transfected with a vector expressing a cDNA of the human APP wt gene (APP695); endogenous in cells; host or cells: HEK293 (human), stably transfected with human APP695 wt only
Test: Cellular Aβ-lowering assay (Aβ40 ELISA, HEK293 cells expressing human APP695)
Format: cell-based
Conditions: HEK293 cells stably expressing human APP695; Aβ40 in supernatant after 18-20 hrs
Protocol: Cellular Aβ-Lowering Assay:
Human HEK293 cells which are stably transfected with a vector expressing a cDNA of the human APP wt gene (APP695) were used to assess the potency of the compounds in a cellular assay. The cells were seeded in 96-well microtiter plates in cell culture medium (Iscove, plus 10% (v/v) fetal bovine serum, glutamine, penicillin/streptomycin) to about 80% confluence and the compounds were added at a 10× concentration in 1/10 volume of medium without FCS containing 8% DMSO (final concentration of DMSO was kept at 0.8% v/v). After 18-20 hrs incubation at 37° C. and 5% CO2 in a humidified incubator the culture supernatant was harvested for the determination of Aβ40 concentrations. 96well ELISA plates (e.g., Nunc MaxiSorb) were coated with monoclonal antibody which specifically recognize the C-terminal end of Aβ40 (Brockhaus et al., NeuroReport 9, 1481-1486; 1998). After blocking of non-specific binding sites with e.g. 1% BSA and washing, the culture supernatants were added in suitable dilutions together with a horseradish peroxidase-coupled Aβ detection antibody (e.g., antibody 4G8, Senetek, Maryland Heights, Mo.) and incubated for 5 to 7 hrs. Subsequently the wells of the microtiter plate were washed extensively with Tris-buffered saline containing 0.05% Tween 20 and the assay was developed with tetramethylbenzidine/H2O2 in citric acid buffer. After stopping the reaction with one volume 1 N H2SO4 the reaction was measured in an ELISA reader at 450 nm wavelength. The concentrations of Aβ in the culture supernatants were calculated from a standard curve obtained with known amounts of pure Aβ peptide.

T1 sequence (P56817 46-501): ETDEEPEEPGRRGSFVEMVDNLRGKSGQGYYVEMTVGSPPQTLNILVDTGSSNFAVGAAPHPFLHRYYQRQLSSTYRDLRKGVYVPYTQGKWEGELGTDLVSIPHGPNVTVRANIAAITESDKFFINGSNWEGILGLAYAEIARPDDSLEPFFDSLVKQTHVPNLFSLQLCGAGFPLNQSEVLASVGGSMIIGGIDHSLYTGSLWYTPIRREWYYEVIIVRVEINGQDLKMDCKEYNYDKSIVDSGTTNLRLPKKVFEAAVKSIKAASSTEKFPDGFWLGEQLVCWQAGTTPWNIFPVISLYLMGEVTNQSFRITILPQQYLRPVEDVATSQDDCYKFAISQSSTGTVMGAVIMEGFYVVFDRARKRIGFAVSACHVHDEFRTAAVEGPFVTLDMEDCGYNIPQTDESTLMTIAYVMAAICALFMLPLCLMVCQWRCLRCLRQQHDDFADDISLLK

SMILES | IC50 [nM]
COc1cncc(-c2cccc(C3(C)COCC(N)=N3)c2)c1 (centres unmarked) [Example 1, 5-[3-(5-Methoxy-pyridin-3-yl)-phenyl]-5-methyl-5,6-dihydro-2H-[1,4]oxazin-3-ylamine] | 100
CC1(c2cccc(-c3ccc(F)cc3)c2)COCC(N)=N1 (centres unmarked) [Example 2, 5-(4′-Fluoro-biphenyl-3-yl)-5-methyl-5,6-dihydro-2H-[1,4]oxazin-3-ylamine] | 1170
CC1(c2cccc(-c3ccsc3)c2)COCC(N)=N1 (centres unmarked) [Example 3, 5-Methyl-5-(3-thiophen-3-yl-phenyl)-5,6-dihydro-2H-[1,4]oxazin-3-ylamine] | 1060
CC1(c2cccc(-c3cccc(Cl)c3)c2)COCC(N)=N1 (centres unmarked) [Example 4, 5-(3′-Chloro-biphenyl-3-yl)-5-methyl-5,6-dihydro-2H-[1,4]oxazin-3-ylamine] | 390
CC1(c2cccc(-c3cc(Cl)ccc3Cl)c2)COCC(N)=N1 (centres unmarked) [Example 5, 5-(2′,5′-Dichloro-biphenyl-3-yl)-5-methyl-5,6-dihydro-2H-[1,4]oxazin-3-ylamine] | 1090
CC1(c2cccc(-c3cc(Cl)cc(Cl)c3Cl)c2)COCC(N)=N1 (centres unmarked) [Example 6, 5-Methyl-5-(2′,3′,5′-trichloro-biphenyl-3-yl)-5,6-dihydro-2H-[1,4]oxazin-3-ylamine] | 4060
CC1(c2cccc(-c3ccc(F)c(Cl)c3)c2)COCC(N)=N1 (centres unmarked) [Example 7, 5-(3′-Chloro-4′-fluoro-biphenyl-3-yl)-5-methyl-5,6-dihydro-2H-[1,4]oxazin-3-ylamine] | 650
COc1cc(Cl)cc(-c2cccc(C3(C)COCC(N)=N3)c2)c1 (centres unmarked) [Example 8, 5-(3′-Chloro-5′-methoxy-biphenyl-3-yl)-5-methyl-5,6-dihydro-2H-[1,4]oxazin-3-ylamine] | 1490
Cc1cc(Cl)cc(-c2cccc(C3(C)COCC(N)=N3)c2)c1F (centres unmarked) [Example 10, 5-(5′-Chloro-2′-fluoro-3′-methyl-biphenyl-3-yl)-5-methyl-5,6-dihydro-2H-[1,4]oxazin-3-ylamine] | 1500
CC1(c2cccc(-c3cc(Cl)cc(C(F)(F)F)c3)c2)COCC(N)=N1 (centres unmarked) [Example 11, 5-(5′-Chloro-3′-trifluoromethyl-biphenyl-3-yl)-5-methyl-5,6-dihydro-2H-[1,4]oxazin-3-ylamine] | 1840
CC1(c2cccc(-c3cc(Cl)cc(C(N)=O)c3)c2)COCC(N)=N1 (centres unmarked) [Example 12, 3′-(5-Amino-3-methyl-3,6-dihydro-2H-[1,4]oxazin-3-yl)-5-chloro-biphenyl-3-carboxylic acid amide] | 1120
CC1(c2cccc(-c3cc(Cl)cc(C(=O)N4CCOCC4)c3)c2)COCC(N)=N1 (centres unmarked) [Example 13, [3′-(5-Amino-3-methyl-3,6-dihydro-2H-[1,4]oxazin-3-yl)-5-chloro-biphenyl-3-yl]-morpholin-4-yl-methanone] | 2390
CC1(c2cccc(-c3cccc(OC(F)F)c3)c2)COCC(N)=N1 (centres unmarked) [Example 14, 5-(3′-Difluoromethoxy-biphenyl-3-yl)-5-methyl-5,6-dihydro-2H-[1,4]oxazin-3-ylamine] | 480
CC1(c2cccc(-c3cccc(OC(F)(F)F)c3)c2)COCC(N)=N1 (centres unmarked) [Example 15, 5-Methyl-5-(3′-trifluoromethoxy-biphenyl-3-yl)-5,6-dihydro-2H-[1,4]oxazin-3-ylamine] | 2310
CC1(c2cccc(-c3cccc(C#N)c3)c2)COCC(N)=N1 (centres unmarked) [Example 16, 3′-(5-Amino-3-methyl-3,6-dihydro-2H-[1,4]oxazin-3-yl)-biphenyl-3-carbonitrile] | 280
CC1(c2cccc(-c3cccc(CC#N)c3)c2)COCC(N)=N1 (centres unmarked) [Example 17, [3′-(5-Amino-3-methyl-3,6-dihydro-2H-[1,4]oxazin-3-yl)-biphenyl-3-yl]-acetonitrile] | 1060
CC(C)(C)c1ccc(-c2cccc(C3(C)COCC(N)=N3)c2)cc1 (centres unmarked) [Example 18, 5-(4′-tert-butyl-biphenyl-3-yl)-5-methyl-5,6-dihydro-2H-[1,4]oxazin-3-ylamine formate] | 6120
CC1(c2cccc(-c3ccnc(Cl)c3)c2)COCC(N)=N1 (centres unmarked) [Example 19, 5-[3-(2-chloro-pyridin-4-yl)-phenyl]-5-methyl-5,6-dihydro-2H-[1,4]oxazin-3-ylamine formate] | 1060
CC1(c2cccc(-c3cc(Cl)cnc3Cl)c2)COCC(N)=N1 (centres unmarked) [Example 20, 5-[3-(2,5-Dichloro-pyridin-3-yl)-phenyl]-5-methyl-5,6-dihydro-2H-[1,4]oxazin-3-ylamine] | 490

SMILES | IC50 [nM]
CC1(c2cccc(-c3ccc4c(c3)OC(F)(F)O4)c2)COCC(N)=N1 (centres unmarked) [Example 21, 5-[3-(2,2-Difluoro-benzo[1,3]dioxol-5-yl)-phenyl]-5-methyl-5,6-dihydro-2H-[1,4]oxazin-3-ylamine] | 4550
CC1(c2cccc(-c3ccc4c(c3)OCO4)c2)COCC(N)=N1 (centres unmarked) [Example 22, 5-(3-Benzo[1,3]dioxol-5-yl-phenyl)-5-methyl-5,6-dihydro-2H-[1,4]oxazin-3-ylamine] | 1060
Cn1ncc2c(-c3cccc(C4(C)COCC(N)=N4)c3)cccc21 (centres unmarked) [Example 23, 5-Methyl-5-[3-(1-methyl-1H-indazol-4-yl)-phenyl]-5,6-dihydro-2H-[1,4]oxazin-3-ylamine] | 3660
CC1(c2cccc(-c3cc4ccc(Cl)cc4[nH]3)c2)COCC(N)=N1 (centres unmarked) [Example 24, 5-[3-(6-Chloro-1H-indol-2-yl)-phenyl]-5-methyl-5,6-dihydro-2H-[1,4]oxazin-3-ylamine] | 12700
CC1(c2cccc(-c3ccc4[nH]ccc4c3)c2)COCC(N)=N1 (centres unmarked) [Example 25, 5-[3-(1H-Indol-5-yl)-phenyl]-5-methyl-5,6-dihydro-2H-[1,4]oxazin-3-ylamine] | 6410
Cc1cc(-c2cccc(C3(C)COCC(N)=N3)c2)ccc1Cl (centres unmarked) [Example 26, 5-(4′-Chloro-3′-methyl-biphenyl-3-yl)-5-methyl-5,6-dihydro-2H-[1,4]oxazin-3-ylamine] | 13000
CC1(c2cccc(-c3ccc(F)cc3F)c2)COCC(N)=N1 (centres unmarked) [Example 27, 5-(2′,4′-Difluoro-biphenyl-3-yl)-5-methyl-5,6-dihydro-2H-[1,4]oxazin-3-ylamine] | 1060
CC1(c2cccc(-c3cc(F)cc(F)c3)c2)COCC(N)=N1 (centres unmarked) [Example 28, 5-(3′,5′-Difluoro-biphenyl-3-yl)-5-methyl-5,6-dihydro-2H-[1,4]oxazin-3-ylamine] | 2080
CC1(c2cccc(-c3ccccc3Cl)c2)COCC(N)=N1 (centres unmarked) [Example 29, 5-(2′-Chloro-biphenyl-3-yl)-5-methyl-5,6-dihydro-2H-[1,4]oxazin-3-ylamine] | 1060
CCOc1cccc(-c2cccc(C3(C)COCC(N)=N3)c2)c1 (centres unmarked) [Example 30, 5-(3′-Ethoxy-biphenyl-3-yl)-5-methyl-5,6-dihydro-2H-[1,4]oxazin-3-ylamine] | 9100
CC1(c2ccc(F)c(-c3cc(Cl)cc(Cl)c3)c2)COCC(N)=N1 (centres unmarked) [Example 31, 5-(3′,5′-Dichloro-6-fluoro-biphenyl-3-yl)-5-methyl-5,6-dihydro-2H-[1,4]oxazin-3-ylamine] | 1000
CC1(c2cccc(-c3ccc(Cl)cn3)c2)COCC(N)=N1 (centres unmarked) [Example 33, 5-[3-(5-Chloro-pyridin-2-yl)-phenyl]-5-methyl-5,6-dihydro-2H-[1,4]oxazin-3-ylamine] | 12600
CC1(c2cccc(-c3cncc(Cl)c3)c2)COCC(N)=N1 (centres unmarked) [Example 34, 5-[3-(5-Chloro-pyridin-3-yl)-phenyl]-5-methyl-5,6-dihydro-2H-[1,4]oxazin-3-ylamine] | 390
CC1(c2cccc(-c3cncc(C#N)c3)c2)COCC(N)=N1 (centres unmarked) [Example 38, 5-(3-(5-Amino-3-methyl-3,6-dihydro-2H-1,4-oxazin-3-yl)phenyl)nicotinonitrile] | 310
CC1(c2cccc(-c3cccnc3F)c2)COCC(N)=N1 (centres unmarked) [Example 39, 5-(3-(2-fluoropyridin-3-yl)phenyl)-5-methyl-5,6-dihydro-2H-1,4-oxazin-3-amine] | 280
CC1(c2cccc(-c3ccc(F)nc3F)c2)COCC(N)=N1 (centres unmarked) [Example 40, 5-(3-(2,6-difluoropyridin-3-yl)phenyl)-5-methyl-5,6-dihydro-2H-1,4-oxazin-3-amine] | 530
CC1(c2cccc(-c3cccc(N)c3)c2)COCC(N)=N1 (centres unmarked) [Example 41, 5-(3′-Amino-biphenyl-3-yl)-5-methyl-5,6-dihydro-2H-[1,4]oxazin-3-ylamine] | 3070
COCC#Cc1cccc(C2(C)COCC(N)=N2)c1 (centres unmarked) [Example 42, 5-[3-(3-Methoxy-prop-1-ynyl)-phenyl]-5-methyl-5,6-dihydro-2H-[1,4]oxazin-3-ylamine] | 1060
CC1(c2cccc(C#Cc3ccc(Cl)cn3)c2)COCC(N)=N1 (centres unmarked) [Example 43, 5-[3-(5-Chloro-pyridin-2-ylethynyl)-phenyl]-5-methyl-5,6-dihydro-2H-[1,4]oxazin-3-ylamine] | 300
